Values quoted from earlier work, collected in patent US8226980B2, “Orally disintegrating solid dosage forms comprising progestin and methods of making and using thereof” (Teva Women's Health, Inc., priority 2006, dated 2012).
Read-outs that look alike come from different tables or passages of the source.

Conditions: for Dose roughly equivalent to 0.050 mg of levonorgestrel: in a contraceptive regimen

SMILES: C#C[C@]1(O)CC[C@H]2[C@@H]3CCC4=C(CCC(=O)C4)[C@H]3CC[C@@]21C [Norethynodrel]
- Norethindrone Equivalent* Dose (progestin Dose 2.50 mg): 2.50 mg
- Norethindrone Equivalent* Dose (progestin Dose 5.00 mg): 5.00 mg
- Norethindrone Equivalent* Dose (progestin Dose 9.85 mg): 9.85 mg

SMILES: C#C[C@]1(O)C=C[C@H]2[C@@H]3CCC4=CC(=O)CC[C@@H]4[C@H]3CC[C@@]21CC [gestodene]
- Dose roughly equivalent to 0.050 mg of levonorgestrel: about 0.035 mg

SMILES: C#CC1(O)CC[C@H]2[C@@H]3CCC4=CC(=O)CC[C@@H]4[C@H]3CC[C@@]21CC (mixture of isomers) [dl-Norgestrel]
- Dose roughly equivalent to 0.050 mg of levonorgestrel: about 0.100 mg
- Norethindrone Equivalent* Dose (progestin Dose 0.30 mg): 0.45 mg
- Norethindrone Equivalent* Dose (progestin Dose 0.50 mg): 0.75 mg

SMILES: C#C[C@]1(O)CCC2C3CCC4=CC(=O)CCC4C3CCC21CC (stereo partly drawn) [Levonorgestrel, 18,19-Dinorpregn-4-en-20-yn-3-one-13-ethyl-17-hydroxy-, (17α)-(−)-]
- Norethindrone Equivalent* Dose (progestin Dose 0.10 mg): 0.35 mg
- Norethindrone Equivalent* Dose (progestin Dose 0.15 mg): 0.52 mg

SMILES: C#C[C@]1(OC(C)=O)CC[C@H]2[C@@H]3CCC4=CC(=O)CC[C@@H]4[C@H]3CC[C@@]21C [Norethindrone acetate]
- Dose roughly equivalent to 0.050 mg of levonorgestrel: about 0.175 mg
- Norethindrone Equivalent* Dose (progestin Dose 0.40 mg): 0.40 mg
- Norethindrone Equivalent* Dose (progestin Dose 0.50 mg): 0.50 mg
- Norethindrone Equivalent* Dose (progestin Dose 0.60 mg): 0.60 mg
- Norethindrone Equivalent* Dose (progestin Dose 1.00 mg): 1.00 mg
- Norethindrone Equivalent* Dose (progestin Dose 1.50 mg): 1.50 mg
- Norethindrone Equivalent* Dose (progestin Dose 2.50 mg): 2.50 mg

SMILES: C#C[C@]1(O)CC[C@H]2[C@@H]3CCC4=CC(=O)CC[C@@H]4[C@H]3CC[C@@]21C [Norethindrone]
- Norethindrone Equivalent* Dose (progestin Dose 1.00 mg): 1.00 mg
- Norethindrone Equivalent* Dose (progestin Dose 2.00 mg): 2.00 mg
- Norethindrone Equivalent* Dose (progestin Dose 10.00 mg): 10.00 mg

SMILES: C#C[C@]1(O)CC[C@H]2[C@@H]3CCC4=CC(=O)CC[C@@H]4[C@H]3C(=C)C[C@@]21CC [3-ketodesogestrel]
- Dose roughly equivalent to 0.050 mg of levonorgestrel: about 0.050 mg

SMILES: C#C[C@]1(O)CC[C@H]2[C@@H]3CCC4=CCCC[C@@H]4[C@H]3C(=C)C[C@@]21CC [desogestrel]
- Dose roughly equivalent to 0.050 mg of levonorgestrel: about 0.050 mg

SMILES: C#C[C@]1(OC(C)=O)CC[C@H]2[C@@H]3CCC4=C[C@@H](OC(C)=O)CC[C@@H]4[C@H]3CC[C@@]21C [Ethynodiol diacetate]
- Norethindrone Equivalent* Dose (progestin Dose 1.00 mg): 1.00 mg
